Converted amounts (≈) assume the structure as drawn. “And” between values parts separate entries of the source, which are not always exact repeats. Equal entries are not always repeated. “Also recorded” adds a separate entry of the source. Where two headings read alike, the source gives them in different places.
What was measured:
[1] = test system: P388/CPT5 cell line; settings: P388/CPT5, acquired resistance to camptothecin, no P-glycoprotein
Method: (§5) The resistance factor was calculated by dividing the IC50 value obtained on resistant cells by the IC50 value obtained on sensitive cells.

[2] = test system: colon adenocarcinoma C51; experiment: In vivo antitumor activity against colon adenocarcinoma C51; parameters: species or system BALB/c female mice; settings: for T-C: tumor to reach 750 mg
Method: (§1) In vivo schedule of administration and antitumor efficacy studies were carried out using a preclinical standard formulation of Product of formula Ia in ethanol: polysorbate 80 (50:50, v/v). After dilution, the final concentration was 5 % ethanol, 5 % polysorbate, 90 % glucose-5 % in water.
(§2) Product of formula Ia was administered by the intravenous route (i.v.). The experiments and data analyses were done according to standard protocols.
The activity end points used to assess subcutaneously implanted solid tumors were: • tumor growth inhibition, T/C, where T and C are the median tumor weights in mg of the treated and the control groups, respectively. […] A T/C < 10 %, ++, is considered as a high antitumor activity level which justifies further development (DN-2 level).
(§3) In cases of high antitumor activity, the two following end points were also used: • tumor growth delay, T-C, where T and C are the median times in days required for the treatment group and the control group tumors to reach a predetermined size (750 to 1500 mg). • log cell kill, which is the logarithm of the total number of cells killed by treatment.
(§4) Toxicity was based on drug deaths (≥ 10 %) or a weight loss nadir > 20 %. Docetaxel was used for comparison trials when needed.
Product of formula Ia was administered i.v. on day 4, 6, 8. […] The dosage below yielded a 2.2 log cell kill.

[3] = test system: advanced colon adenocarcinoma C38; experiment: In vivo antitumor activity against advanced stage colon adenocarcinoma C38; parameters: species or system B6D2F1 female mice; settings: for T-C: tumor to reach 1000 mg
Method: as §1, §2, §3
For advanced stage tumors, regressions can be either partial (more than 50 % reduction in tumor mass) or complete. Complete regressions are included in the partial regressions.
as §4
Product of formula Ia was administered i.v. to mice bearing 200 to 400 mg of tumor. […] In comparison, docetaxel at the HNTD produced only 40 % partial regressions in the same trial.

[4] = test system: P388/DOX; settings: IC50 on resistant cells divided by IC50 on sensitive cells, 4 days of continuous exposure
Method: as §5

[5] = test system: P388/TXT; settings: IC50 resistant / IC50 sensitive cells, 4 days of continuous exposure
Method: as §5

[6] = test system: P388/VCR; settings: IC50 resistant / IC50 sensitive cells, 4 days of continuous exposure
Method: as §5

[7] = test system: HL60/TAX; settings: IC50 resistant / IC50 sensitive cells, 4 days of continuous exposure
Method: as §5

[8] = test system: Calc18/TXT; settings: IC50 resistant / IC50 sensitive cells, 4 days of continuous exposure
Method: as §5

[9] = test system: KB V1; settings: IC50 resistant / IC50 sensitive cells, 4 days of continuous exposure
Method: as §5

[10] = test system: human colon adenocarcinoma CaCo-2 cell line (ATCC HTB37); experiment: In vitro growth inhibition on CaCo-2 cell line (neutral red); type: cell-based
Method: The methodology was used, i.e., 96 well plates, time of contact of the drugs (96 hours) and neutral red coloration of viable cell. Results expressed as IC50, were summarized in the next table.

[11] = 5.8 mg/kg per injection i.v., days 4,6,8
[12] = 9.3 mg/kg per injection i.v., days 4,6,8
[13] = 15.0 mg/kg per injection i.v., days 4,6,8
[14] = 24.2 mg/kg per injection i.v., days 4,6,8
[15] = 7.7 mg/kg per injection i.v., days 14,17,20
[16] = 12.4 mg/kg per injection i.v., days 14,17,20
[17] = 20.0 mg/kg per injection i.v., days 14,17,20
[18] = 32.2 mg/kg per injection i.v., days 14,17,20

`CC[C@@]1(O)C(=O)OCc2c1cc1n(c2=O)Cc2cc3ccccc3nc2-1` [camptothecin] was tested, and the Resistance factor [1] was 286.

In the case of “4α-acetoxy-2α-benzoyloxy-5β,20-epoxy-1β-hydroxy-7β,10β-dimethoxy-9-oxo-11-taxen-13α-yl (2R,3S)-3 tert-butoxycarbonylamino-2-hydroxy-3-phenylpropionate [Product of formula Ia]”, the Comments [2, 11] is reported as “Active”, the “T/C in % day 18” value [2, 11] is reported as 0% and the “log cell kill total” value [2, 11] is reported as 2.2. The T-C [2, 11] was 21.9 days, the Comments [2, 12] was “highly active; also recorded: HNTD active” and the “T/C in % day 18” value [2, 12] was 0%. The “log cell kill total” value [2, 12] was 2.6, the T-C [2, 12] was 25.8 days and the Comments [2, 13] was “Toxic”. The “DD = drug death” value [2, 13] was 1/5, the Comments [2, 14] was “Toxic” and the “DD = drug death” value [2, 14] was 5/5. For the same compound, the “HNTD = highest nontoxic dose” value ([2]; i.v. on day 4, 6, 8, C51-bearing mice) was 9.3 mg/kg/injection, the Comments [3, 15] was “Active” and the Complete regressions [3, 15] was 2/5. The “log cell kill total” value [3, 15] was 2.7, the T-C [3, 15] was 25.0 days and the Comments [3, 16] was “Highly active”. For the same compound, the Complete regressions [3, 16] was “the same number of complete regressions and 5/5”, the “TFS = tumor free survivors observed on day 139” value [3, 16] was 4/5 and the tumor free survivors ([3]; 12.4 mg/kg/injection i.v.) was 80%. For the same compound, the Comments [3, 17] was “HNTD highly active”, the Complete regressions [3, 17] was 5/5 and the “TFS = tumor free survivors observed on day 139” value [3, 17] was “all mice being tumor free survivors and 5/5”. For the same compound, the Comments [3, 18] was “Toxic”, the “DD = drug death” value [3, 18] was 1/5 and the “HNTD = highest nontoxic dose” value ([3]; i.v., mice bearing 200 to 400 mg of tumor) was 20 mg/kg/injection. The Resistance factor [4] was 10.0, the Resistance factor ([4]; listed as product of formula Ia) was 10 and the Resistance factor [5] was 1.8. The Resistance factor [6] was 1.8, the Resistance factor [7] was 2.5 and the Resistance factor [8] was 4.3. For the same compound, the Resistance factor [9] was 7.6 and the Resistance factor [1] was 4.8.

With `CC(=O)O[C@@]12CO[C@@H]1C[C@H](O)[C@@]1(C)C(=O)[C@H](O)C3=C(C)[C@@H](OC(=O)[C@H](O)[C@@H](NC(=O)OC(C)(C)C)c4ccccc4)C[C@@](O)([C@@H](OC(=O)c4ccccc4)[C@H]21)C3(C)C` [Docetaxel] the IC50 ([10]; Homo sapiens, 96 well plates, 96 hours contact, neutral red) was 0.108 ± 0.017 µg/mL (≈ 0.134 µM), the “IC50 on CaCo-2 cells relative to Product of formula Ia” value ([10]; IC50 docetaxel versus IC50 Product of formula Ia) was 4.9 times and the Comments [2, 11] was “Active”. The “T/C in % day 18” value [2, 11] was 4%, the “log cell kill total” value [2, 11] was 0.9 and the T-C [2, 11] was 8.9 days. For the same compound, the Comments [2, 12] was “Active”, the “T/C in % day 18” value [2, 12] was 0% and the “log cell kill total” value [2, 12] was 2.2. The T-C [2, 12] was 22.4 days, the Comments [2, 13] was “HNTD highly active” and the “T/C in % day 18” value [2, 13] was 0%. For the same compound, the “log cell kill total” value [2, 13] was 3.1, the T-C [2, 13] was 31.1 days and the Comments [2, 14] was “Toxic”. The “bwl = body weight loss” value [2, 14] was 22.8%, the Comments [3, 15] was “Inactive” and the Complete regressions [3, 15] was 0/5. The “log cell kill total” value [3, 15] was 0.3, the T-C [3, 15] was 2.5 days and the Comments [3, 16] was “Marginal activity”. For the same compound, the Complete regressions [3, 16] was 0/5, the “log cell kill total” value [3, 16] was 0.7 and the T-C [3, 16] was 6.1 days. The Comments [3, 17] was “HNTD highly active”, the Complete regressions [3, 17] was 0/5 and the “log cell kill total” value [3, 17] was 3.1. For the same compound, the T-C [3, 17] was 29.1 days, the Comments [3, 18] was “Toxic” and the “bwl = body weight loss” value [3, 18] was 20.6%. It also gave a partial regressions ([3]; at the HNTD, partial = more than 50 % reduction in tumor mass) of 40%, a Resistance factor [4] of 50.7 and a Resistance factor ([4]; listed as docetaxel) of 50. The Resistance factor [5] was 4.8, the Resistance factor [6] was 5.8 and the Resistance factor [7] was 8.1. The Resistance factor [8] was 23.5, the Resistance factor [9] was 59.0 and the Resistance factor ([9]; listed as docetaxel) was 59. The Resistance factor [1] was 10.5.

— patent EP0982028A1, “New use of taxoid derivatives” (RHONE-POULENC RORER S.A., priority 1998, dated 2000)
